Measured values from patent US12550899B2, “Topramezone derivative and use thereof” (priority 2023, dated 2026).

Assays:
[1] = system: grassy weeds and broadleaf weeds; experiment: Laboratory bioactivity efficacy test 2.2, visual observation of weeds; format: in vivo
Experimental: • grassy weeds: Digitaria sanguinalis, Eleusine indica, Echinochloa crusgalli; • Broadleaf weeds: Portulaca oleracea, Abutilon theophrasti medicus. 2.2.2 Test Conditions
The soil used for the test was a mixture of surface 20 cm loam and vermiculite, mixed in a volume ratio of 3:1 to form a culture soil. The test weeds were cultured in a glass greenhouse with a temperature ranging from 25° C. to 35° C. and under natural light.
Quantified seeds of Digitaria sanguinalis, Eleusine indica, Echinochloa crusgalli, Portulaca oleracea, and Abutilon theophrasti medicus were sown in plastic pots with a diameter of 9 cm, and covered with 1-2 mm of soil. The ports were then placed in enamel trays filled with water, and watered by bottom irrigation. After the water seeped to the soil surface, the pots were transferred to the glass greenhouse for standby.
Five dosages were set for Compound I, Compound II and the control herbicide Topramezone, which were 3.75, 7.5, 15, 30 and 60 grams of active ingredient per hectare respectively. In addition, a blank control was also prepared.
The required amount of the herbicide was accurately measured out and directly added with water, which was diluted to the required dosage by using the serial dilution method for standby.
(§1) The test was conducted on grassy weeds at the two-leaf and one-heart stage, Abutilon theophrasti medicus at the 2-true-leaf stage, and Portulaca oleracea at the 3-5-leaf stage, with the stems and leaves both sprayed uniformly. The ASS-4 automatic control spraying system with a fan-shaped nozzle was used indoors for herbicide application. Depending on the nozzle pressure and flow rate, 50 mL of herbicide solution was applied to a spraying area of 1.1 m^2 (which was equivalent to the water consumption of 30 L per mu). The system's operating speed was calibrated. The plastic pots to be treated were arranged evenly on the spraying platform to ensure uniform treatment. The spray pressure was set to 0.35 MPa, and the flow rate of the fan-shaped nozzle was set to 800 mL/min. The spraying was carried out in sequence from the low dosage to the high dosage. Each treatment was repeated two to four times.
(§2) The herbicide was applied once. After spraying, the pots were air-dried for one day and then placed in the glass greenhouse. Regular watering was conducted to maintain moisture.
The damage symptoms of the weeds (such as growth inhibition, chlorosis, malformation, etc.) were carefully recorded at 3, 7, 10, and 20 days after herbicide application. A visual comparison of the herbicide effectiveness was made. At 20 days post-application, the fresh weight of the aboveground parts of the weeds from each treatment group was measured, and the fresh weight control efficacy was calculated.

corn = experiment: Corn safety laboratory test, visual observation and overall conclusion; format: in vivo
Experimental: Three corn varieties: Zhengdan 958, white waxy corn, and sweet corn (Runhua sweet corn).
The soil used for the test was a mixture of surface 20 cm loam and vermiculite, mixed in a volume ratio of 3:1 to form a culture soil. The test corn was cultured in a glass greenhouse with a temperature ranging from 25° C. to 35° C. and under natural light.
A measured quantity of corn seeds were sown in plastic pots with a diameter of 15 cm, and covered with 2-3 cm of soil. The ports were then placed in enamel trays filled with water, and watered by bottom irrigation. After sowing, the pots were transferred to the glass greenhouse for cultivation and growth.
In the corn safety test, dosages were set for the two Compounds (Compound I of the present invention and Compound II of the present invention) and the control herbicide Topramezone, which were 15, 30, 60, and 120 grams of active ingredient per hectare respectively. In addition, a blank control was also prepared.
The required amount of the herbicide was accurately measured out, an appropriate amount of emulsifier and organic solvent were added to dissolve the herbicide, and then a certain amount of water was added therein until the herbicide was diluted to the required dosage by using the serial dilution method for standby.
Corn stems and leaves were uniformly sprayed at the 3-4-leaf stage.
as §1, with “ASS-3” for “test was conducted on grassy weeds at the two-leaf and one-heart stage, Abutilon theophrasti medicus at the 2-true-leaf stage, and Portulaca oleracea at the 3-5-leaf stage, with the stems and leaves both sprayed uniformly. The ASS-4”, “three” for “two to four”
as §2
After application of the herbicide, whether there were any phytotoxic symptoms in the corn for each treatment was recorded. If yes, the phytotoxicity symptoms and grade were recorded in detail. 15 days after application, the fresh weight of the corn in each treatment was measured and the fresh weight control efficacy was calculated to assess the safety of the herbicide on the corn.

[2] = 3 to 7 days after application, grassy weeds and broadleaf weeds like Portulaca oleracea

Cc1c(C(=O)c2cnn(C)c2O)ccc(S(C)(=O)=O)c1C1=NOCC1 [Topramezone]
Visual observation of weeds [1, 2]: gradually became whitened and withered
Visual observation of weeds ([1]; 10 days after application): excellent treatment effects
Visual observation of weeds ([1]; 20 days after application): dried up and died
Visual observation of corn (corn; 3 to 7 days after application): safe for corn
Visual observation of corn (corn; 10 days after application): safe for corn
Visual observation of corn (corn; 15 days after application): basically growing normally
Overall safety for corn (corn; Zhengdan 958, waxy corn and sweet corn): high safety levels

COC(=O)OC(C)Oc1c(C(=O)c2ccc(S(C)(=O)=O)c(C3=NOCC3)c2C)cnn1C (centres unmarked) [Compound I, 1-((4-(3-(4,5-dihydroisoxazol-3-yl)-2-methyl-4-(methylsulfonyl)benzoyl)-1-methyl-1H-pyrazol-5-yl)oxy)ethyl methyl carbonate]
Visual observation of weeds [1, 2]: gradually became whitened and withered
Visual observation of weeds ([1]; 10 days after application): excellent treatment effects
Visual observation of weeds ([1]; 20 days after application): dried up and died
Visual observation of corn (corn; in vivo): all normal

Cc1c(C(=O)c2cnn(C)c2OC(=O)C(C)(C)C)ccc(S(C)(=O)=O)c1C1=NOCC1 [Compound II, 4-(3-(4,5-dihydroisoxazol-3-yl)-2-methyl-4-(methylsulfonyl)benzoyl)-1-methyl-1H-pyrazol-5-yl pivalate]
Visual observation of weeds [1, 2]: gradually became whitened and withered
Visual observation of weeds ([1]; 10 days after application): excellent treatment effects
Visual observation of weeds ([1]; 20 days after application): dried up and died
